The source made the active and inactive calls. No cut-off for these calls is given here.
Columns and labels:
Mus musculus [1] = assay: Cardiotoxicity in nude mouse xenografted with human EC109 cells at 10 mg/kg in presence of paclitaxel measured after 21 days by histopathological analysis; assay type: toxicity, organism-based; settings: in vivo, 504 h
ECa-109 cell line [2] = assay: Induction of apoptosis in human EC109 cells assessed as increase in Bid level at 15 uM in presence of 5 nM paclitaxel by Western blot method; assay type: functional, cell-based
ECa-109 cell line [3] = assay: Induction of apoptosis in human EC109 cells assessed as decrease in pro-caspase 3 expression at 15 uM in presence of 5 nM paclitaxel by Western blot method; assay type: functional, cell-based
Mus musculus [4] = assay: Hepatotoxicity in nude mouse xenografted with human EC109 cells at 10 mg/kg in presence of paclitaxel measured after 21 days by histopathological analysis; assay type: toxicity, organism-based; settings: in vivo, 504 h
ECa-109 cell line [5] = assay: Induction of apoptosis in human EC109 cells assessed as decrease in pro-caspase 9 expression at 15 uM in presence of 5 nM paclitaxel by Western blot method; assay type: functional, cell-based
ECa-109 cell line [6] = assay: Induction of apoptosis in human EC109 cells assessed as decrease in Bcl-XL level at 15 uM in presence of 5 nM paclitaxel by Western blot method; assay type: functional, cell-based
ECa-109 cell line [7] = assay: Induction of apoptosis in human EC109 cells assessed as increase in Bak level at 15 uM in presence of 5 nM paclitaxel by Western blot method; assay type: functional, cell-based
ECa-109 cell line [8] = assay: Induction of apoptosis in human EC109 cells assessed as necrotic cells at 15 uM after 24 hrs in presence of paclitaxel by Annexin V-FITC/propidium iodide staining based flow cytometry (reference value: 1.6 %); assay type: functional
Mus musculus [9] = assay: Hepatotoxicity in nude mouse xenografted with human EC109 cells assessed as change in serum AST level at 10 mg/kg in presence of paclitaxel measured after 21 days; assay type: toxicity, organism-based; settings: in vivo, 504 h
ECa-109 cell line [10] = assay: Induction of apoptosis in human EC109 cells assessed as decrease in Bcl-2 level at 15 uM in presence of 5 nM paclitaxel by Western blot method; assay type: functional, cell-based
Mus musculus [11] = assay: Toxicity in nude mouse xenografted with human EC109 cells assessed as body weight loss at 10 mg/kg measured after 21 days; assay type: organism-based; settings: in vivo, 504 h
ECa-109 cell line [12] = assay: Induction of apoptosis in human EC109 cells assessed as late apoptotic cells at 15 uM after 24 hrs in presence of paclitaxel by Annexin V-FITC/propidium iodide staining based flow cytometry (reference value: 1%); assay type: functional
ECa-109 cell line [13] = assay: Induction of apoptosis in human EC109 cells assessed as early apoptotic cells at 15 uM after 24 hrs by Annexin V-FITC/propidium iodide staining based flow cytometry (reference value: 1.3%); assay type: functional
ECa-109 cell line [14] = assay: Induction of apoptosis in human EC109 cells assessed as nuclear shrinkage at 15 uM in presence of 5 nM paclitaxel after 24 hrs by Hochest 33258 staining based fluorescent microscopic analysis; assay type: functional, cell-based
ECa-109 cell line [15] = assay: Induction of apoptosis in human EC109 cells assessed as necrotic cells at 15 uM after 24 hrs by Annexin V-FITC/propidium iodide staining based flow cytometry (reference value: 1.6 %); assay type: functional
ECa-109 cell line [16] = assay: Cytotoxicity against human EC109 cells assessed as combination index at 15 uM in presence of 5 nM paclitaxel; assay type: functional
ECa-109 cell line [17] = assay: Antitumor activity against human EC109 cells xenografted in nude mouse assessed as decrease in tumor weight at 10 mg/kg in presence of 5 mg/kg paclitaxel measured after 21 days; assay type: functional, organism-based
ECa-109 cell line [18] = assay: Cytotoxicity against human EC109 cells assessed as combination index at 30 uM in presence of 2.5 nM paclitaxel; assay type: functional
ECa-109 cell line [19] = assay: Antitumor activity against human EC109 cells xenografted in nude mouse assessed as reduction in tumor volume at 10 mg/kg in presence of 5 mg/kg paclitaxel measured after 21 days; assay type: functional, organism-based
ECa-109 cell line [20] = assay: Antitumor activity against human EC109 cells xenografted in nude mouse assessed as induction of necrosis at 10 mg/kg measured after 21 days by H and E staining based assay; assay type: functional, organism-based
ECa-109 cell line [21] = assay: Cytotoxicity against human EC109 cells assessed as combination index at 15 uM in presence of 10 nM paclitaxel; assay type: functional
Mus musculus [22] = assay: Hepatotoxicity in nude mouse xenografted with human EC109 cells assessed as change in serum ALP level at 10 mg/kg in presence of paclitaxel measured after 21 days; assay type: toxicity, organism-based; settings: in vivo, 504 h
ECa-109 cell line [23] = assay: Cytotoxicity against human EC109 cells assessed as combination index at 5 uM in presence of 2.5 nM paclitaxel; assay type: functional
ECa-109 cell line [24] = assay: Induction of apoptosis in human EC109 cells assessed as decrease in Mcl-1 level at 15 uM in presence of 5 nM paclitaxel by Western blot method; assay type: functional, cell-based
ECa-109 cell line [25] = assay: Cytotoxicity against human EC109 cells assessed as combination index at 30 uM in presence of 5 nM paclitaxel; assay type: functional
ECa-109 cell line [26] = assay: Cytotoxicity against human EC109 cells assessed as combination index at 30 uM in presence of 10 nM paclitaxel; assay type: functional
Mus musculus [27] = assay: Toxicity in nude mouse xenografted with human EC109 cells assessed as effect on lungs at 10 mg/kg in presence of paclitaxel measured after 21 days by histopathological analysis; assay type: organism-based; settings: in vivo, 504 h
ECa-109 cell line [28] = assay: Cytotoxicity against human EC109 cells assessed as combination index at 15 uM in presence of 2.5 nM paclitaxel; assay type: functional
ECa-109 cell line [29] = assay: Antitumor activity against human EC109 cells xenografted in nude mouse assessed as induction of necrosis at 10 mg/kg in presence of paclitaxel measured after 21 days by H and E staining based assay; assay type: functional, organism-based

In the case of `C=C1C(=O)[C@@]23[C@@H]4OC(c5ccc(Cl)cc5)O[C@@]25OC[C@@]2([C@H]([C@@H]5O)C(C)(C)CC[C@@H]2O)[C@@H]3CC[C@@H]14` (some centres undefined), the Activity (Mus musculus [1]) is reported as “Non-Toxic”, the Activity (ECa-109 cell line [2]) is reported as “Active” and the Activity (ECa-109 cell line [3]) is reported as “Active”. The Activity (Mus musculus [4]) was “Non-Toxic”, the Activity (ECa-109 cell line [5]) was “Active” and the Activity (ECa-109 cell line [6]) was “Active”. For the same compound, the Activity (ECa-109 cell line [7]) was “Active”, the Activity (ECa-109 cell line [8]) was 1.5% and the Activity (Mus musculus [9]) was “Non-Toxic”. The Activity (ECa-109 cell line [10]) was “Active”, the Activity (Mus musculus [11]) was “Non-Toxic” and the Activity (ECa-109 cell line [12]) was 9.7%. The Activity (ECa-109 cell line [13]) was 20.2%, the Activity (ECa-109 cell line [14]) was “Active” and the Activity (ECa-109 cell line [15]) was 1.3%. The CI (ECa-109 cell line [16]) was 0.37, the Activity (ECa-109 cell line [17]) was “Active” and the CI (ECa-109 cell line [18]) was 1.15. The Activity (ECa-109 cell line [19]) was “Active”, the Activity (ECa-109 cell line [20]) was “Active” and the CI (ECa-109 cell line [21]) was 0.68. For the same compound, the Activity (Mus musculus [22]) was “Non-Toxic”, the CI (ECa-109 cell line [23]) was 1.79 and the Activity (ECa-109 cell line [24]) was “Active”. The CI (ECa-109 cell line [25]) was 0.93, the CI (ECa-109 cell line [26]) was 1.12 and the Activity (Mus musculus [27]) was “Non-Toxic”. The CI (ECa-109 cell line [28]) was 0.6 and the Activity (ECa-109 cell line [29]) was “Active”.

— ChEMBL document CHEMBL4014287, “Jesridonin in combination with paclitaxel demonstrates synergistic anti-tumor activity in human esophageal carcinoma cells” (Bioorg Med Chem Lett, 2017)
